Experimental data from patent publication US9738591B2, “Antimicrobial compounds” (priority 2009, dated 2017).

Legend:
Assay in all cases: Disk diffusion
[1] = test system: Klebsiella edwardsii NCTC 10896; assay type: cell-based; details: 10 mg/ml, 20 μl
[2] = test system: Salmonella enterica subsp. enterica serovar Typhimurium ATCC 13311; details: 10 mg/ml, 20 μl; repeat
[3] = test system: Yersinia enterocolitica clinical 26609; details: 10 mg/ml, 20 μl; repeat, strain clinical 26609
[4] = test system: Bacillus cereus ATCC 13061; details: 10 mg/ml, 20 μl
[5] = test system: Streptococcus pneumoniae ATCC 49619; details: 10 mg/ml, 20 μl, Mueller Hinton + Blood & Incubated in 5% CO2

## O=C(O)c1ccc(/C=C/c2cc(/C=C/c3ccc(C(=O)O)cc3)cc(/C=C/c3ccc(C(=O)O)cc3)c2)cc1 [TSB007]
[1]
  Zone diameters, Repeat Results: 9 trim
[2]
  Zone diameters, Repeat Results: 11 trim
[3]
  Zone diameters, Repeat Results: 8 trim
[4]; 24 h
  Zone diameters, 24 h TSB007: 10 trim
[4]; 48 h
  Zone diameters, 48 h TSB007: 9 trim
[4]; repeat
  Zone diameters, Repeat Results: 9 trim
[5]; 24 h
  Zone diameters, 24 h TSB007: 16 trim
[5]; 48 h
  Zone diameters, 48 h TSB007: 16 trim
